Measured values: paper PMC9826262, “Discovery of Benzo[d]imidazole‐6‐sulfonamides as Bromodomain and Extra‐Terminal Domain (BET) Inhibitors with Selectivity for the First Bromodomain” (Chemmedchem, 2022)
≈ marks a conversion by molar mass, not a printed value.

Assays:
[1] = Nephelometric solubility determination; format: physicochemical; settings: for solubility: aqueous buffer, kinetic from dmso stock, PBS with 1 % DMSO, tested at 50 and 100 μM, room temperature, read-out: Solubility (highest concentration where no precipitate was detected)
Protocol: Solubility determination. Solubility of the compounds was determined using Nepheloskan Ascent® (Labsystems). The experiments were performed at room temperature in 96‐well plates in a final volume of 300 μL. Each compound was tested in quadruplicate at the concentrations of 50 and 100 μM in PBS with 1 % DMSO. The measurements were performed at 4 different time points (T0, 30 min, 60 min, 90 min) from the preparation of the samples. Data obtained were compared to control (PBS with 1 % DMSO) and the ratio sample/control was determined for each compound. Compounds are considered soluble if the ratio is≤3.

[2] = CYPs and UGTs dual-activity microsomal stability; format: in vitro ADME; settings: human liver microsomes; alamethicin, NADPH and UDPGA cofactors; 37 °C, 60 min
Protocol: In this study, the CYPs and UGTs “dual‐activity” microsomal stability assay was carried out to follow the loss of the test compounds over time under CYP‐ and UGT‐mediated metabolic pathways. In detail, the compounds were added to human liver microsomes in the presence of alamethicin, NADPH and UDPGA as cofactors.[24] Alamethicin, a pore‐forming peptide, was used to activate UGTs in human liver microsomes. Testosterone was used as positive control while the negative control was prepared by incubation of the compounds without cofactors up to 60 min. The negative control is essential to detect problems such as non‐specific protein binding or heat instability.
Instrumentation and chromatographic conditions. The metabolic stability of investigated compounds was monitored using a Nexera UHPLC system (Shimadzu, Kyoto, Japan) consisting of a CBM‐20A controller, two LC‐30AD pumps, an SPD‐M20A photo diode array detector, a CTO‐20AC column oven and, a SIL‐30AC autosampler. The chromatographic analyses were accomplished on a Kinetex® Evo C18 column, 150×2.1 mm×2.6 μm (Phenomenex®, Bologna, Italy) maintained at 40 °C. The optimal mobile phase consisted of 0.1 % HCOOH/H2O v/v (A) and 0.1 % HCOOH/ACN v/v (B) delivered at constant flow rate of 0.5 mL/min ^−1. Analysis was performed in gradient elution as follows: 0–8.00 min, 5–95 % B; 8.00–10.00 min, isocratic to 95 % B; then five minutes for column re‐equilibration. Data acquisition was set in the range 190–800 nm and chromatograms were monitored at 254 nm.
In vitro drug metabolism using human liver microsomes. 25 μL of 5 mg/mL human […] microsomes (Thermo Fisher Scientific, Bremen, Germany) were pre‐incubated with 0.625 μL of 100 μg/mL alamethicin. Then 2.5 μL of sample (5 mM) with 168 μL of 100 mM phosphate buffer (pH 7.4), 4 μL of 500 mM MgCl2 were added, the mixture was incubated at 37 °C for 5 min. Optimal UGT activity can be achieved by the addition of MgCl2 and alamethicin as pore forming antibiotic. These components allow for the efficient transfer of a glucuronide product and the cofactor uridine 5′‐diphospho‐α‐D‐glucuronic acid (UDPGA) within the microsomal matrix. The reaction has started by adding 50 μL of mix NADPH 20 mM and UDP‐GlcUA 20 mM as cofactors (1 : 1 v/v) and carried out 37 °C for 60 min in a Thermomixer comfort (Eppendorf, Hamburg, Germany). The reaction was stopped by the addition of 200 μL ice‐cold acetonitrile and then samples were centrifuged at 14,000 rpm at 25 °C for 5 min (Eppendorf® microcentrifuge 5424, Hamburg, Germany). The supernatants were collected and injected in UHPLC. The control at 0 min was obtained by addition of ice‐cold acetonitrile immediately after incubation with microsomes. […]

[3] = in vitro; settings: PAMPA, pH 7.4
Protocol: Membrane permeability was estimated by the well‐validated parallel artificial membrane permeability assay (PAMPA) technique.[17, 26]
Parallel Artificial Membrane Permeability Assay (PAMPA). Donor solution (0.2 mM) was prepared by diluting 20 mM dimethyl sulfoxide (DMSO) compound stock solution using phosphate buffer (pH 7.4, 0.01 M). Filters were coated with 5 μL of a 1 % (w/v) dodecane solution of L‐α‐phosphatidylcholine. Donor solution (150 μL) was added to each well of the filter plate. To each well of the acceptor plate, 300 μL of solution (5 % DMSO in phosphate buffer) was added. […] The sandwich was incubated for 24 h at room temperature under gentle shaking. After the incubation time, the sandwich plates were separated and 250 μL of the acceptor plate was transferred to a UV quartz microtiter plate and measured by UV spectroscopy, using a Multiskan GO microplate spectrophotometer (Thermo Fisher Scientific) at 250–500 nm at a step of 5 nm. Reference solutions (250 μL) were prepared diluting the sample stock solutions to the same concentration as that with no membrane barrier.
In this equation, VR is the volume of the acceptor compartment (0.3 cm^3), VD is the donor volume (0.15 cm^3), A is the accessible filter area (0.24 cm^2), and t is the incubation time in seconds.

[4] = test system: BD1 and BD2 of BET proteins (BRD2, BRD3, BRD4 and BRDT); assay: Protein stability shift assay (ΔTm), BET bromodomains; format: binding; settings: compound 10 μM; protein 2 μM
Protocol: (§1) The compounds were tested at 10 μM fixed dose and the pan‐BET inhibitor 1 was used as a reference compound.[22] The results obtained from this screening supported our design strategy.
(§2) Protein stability shift assay. Thermal melting experiments were carried out using an Mx3005p Real Time PCR machine (Stratagene). Proteins were buffered in 10 mM HEPES pH 7.5, 500 mM NaCl and assayed in a 96‐well plate at a final concentration of 2 μM in 20 μL volume. Compounds were added at a final concentration of 10 μM. SYPRO Orange (Molecular Probes) was added as a fluorescence probe at a dilution of 1 : 1000. Excitation and emission filters for the SYPRO‐Orange dye were set to 465 nm and 590 nm, respectively. The temperature was raised with a step of 3 °C per minute from 25 °C to 96 °C and fluorescence readings were taken at each interval. The temperature dependence of the fluorescence during the protein denaturation process was approximated by the equation yT=yF+yU-yF/1+e^ΔuGT/RT
(§3) where ΔuG(T) is the difference in unfolding free energy between the folded and unfolded state, R is the gas constant and yF and yU are the fluorescence intensity of the probe in the presence of completely folded and unfolded protein, respectively. The baselines of the denatured and native states were approximated by a linear fit. The observed temperature shifts, ΔTm obs, were recorded as the difference between the transition midpoints of sample and reference wells containing protein without ligand in the same plate and determined by non‐linear least squares fit.

[5] = test system: non‐BET bromodomain‐containing proteins (CREBBP, PB1 and PCAF); assay: Protein stability shift assay (ΔTm), non-BET bromodomains; format: binding; settings: compound 10 μM; protein 2 μM
Protocol: as §1, §2, §3

[6] = test system: BD1 of BRD4; parameters: method as in earlier work; settings: ref 19b; cited from earlier work
[7] = test system: BD1 (BRD3 and BRD4); settings: cited from earlier work

Structure (SMILES)	ΔTm screening against BET bromodomains [4]	also measured
Cc1cc(/N=N/c2ccc(S(=O)(=O)Nc3ccccn3)cc2)c(N)cc1O [7 a, MS436, reference compound]	–	Solubility at 100 μM ([1]; 100 μM, aqueous solution with 1 % DMSO): still soluble; solubility [1]: 100 µM (≈ 38.3 µg/mL); CYPs and UGTs “dual‐activity” microsomal stability (percentage of the parent compound turnover) [2]: 7.8±0.5%; Papp at 24 h, 0.2 mM [3]: 0.0103 ×10⁻⁶ cm/s
Cc1cc(-c2nc3ccc(S(=O)(=O)Nc4ccc(C#N)cc4)cc3[nH]2)cc(C)c1O [9 b, N ‐(4‐cyanophenyl)‐2‐(4‐hydroxy‐3,5‐dimethylphenyl)‐1H‐benzo[d]imidazole‐6‐sulfonamide]	increase in the melting temperature of all BET proteins	solubility [1]: 50 µM (≈ 20.9 µg/mL); CYPs and UGTs “dual‐activity” microsomal stability (percentage of the parent compound turnover) [2]: 16.3±0.5%; Papp at 24 h, 0.2 mM [3]: 0.0909 ×10⁻⁶ cm/s
Cc1cc(-c2nc3ccc(S(N)(=O)=O)cc3[nH]2)cc(C)c1O [9 c, 2‐(4‐hydroxy‐3,5‐dimethylphenyl)‐1H‐benzo[d]imidazole‐6‐sulfonamide]	definitely lower affinity than 9 a and 9 b	–
CNS(=O)(=O)c1ccc2nc(-c3cc(C)c(O)c(C)c3)[nH]c2c1 [9 d, 2‐(4‐hydroxy‐3,5‐dimethylphenyl)‐N‐methyl‐1H‐benzo[d]imidazole‐6‐sulfonamide]	definitely lower affinity than 9 a and 9 b	–
Cc1cc(-c2nc3ccc(S(=O)(=O)NCc4ccccn4)cc3[nH]2)cc(C)c1O [9 e, 2‐(4‐hydroxy‐3,5‐dimethylphenyl)‐N‐(pyridin‐2‐ylmethyl)‐1H‐benzo[d]imidazole‐6‐sulfonamide]	complete loss of activity	–
Cc1cc(-c2nc3ccc(S(=O)(=O)NCc4cccnc4)cc3[nH]2)cc(C)c1O [9 f, 2‐(4‐hydroxy‐3,5‐dimethylphenyl)‐N‐(pyridin‐3‐ylmethyl)‐1H‐benzo[d]imidazole‐6‐sulfonamide]	complete loss of activity	–
Cc1cc(-c2nc3ccc(S(=O)(=O)NC4CC4)cc3[nH]2)cc(C)c1O [9 g, N ‐cyclopropyl‐2‐(4‐hydroxy‐3,5‐dimethylphenyl)‐1H‐benzo[d]imidazole‐6‐sulfonamide]	partial loss of affinity toward BETs	ΔTm screening, off-target binding (BD2 of BRDT and non-BET bromodomains) [5]: strong off‐target binding
Cc1cc(-c2nc3ccc(S(=O)(=O)NC4CCCC4)cc3[nH]2)cc(C)c1O [9 h, N ‐cyclopentyl‐2‐(4‐hydroxy‐3,5‐dimethylphenyl)‐1H‐benzo[d]imidazole‐6‐sulfonamide]	affinity toward BETs similar to 9 a and 9 b	ΔTm screening, off-target binding (BD2 of BRDT and non-BET bromodomains) [5]: strong binding to BD2 of BRDT and other non‐BET bromodomain‐containing proteins
Cc1cc(-c2nc3ccc(S(=O)(=O)NC4CCCCC4)cc3[nH]2)cc(C)c1O [9 i, N ‐cyclohexyl‐2‐(4‐hydroxy‐3,5‐dimethylphenyl)‐1H‐benzo[d]imidazole‐6‐sulfonamide]	affinity toward BETs similar to 9 a and 9 b	ΔTm screening, off-target binding (BD2 of BRDT and non-BET bromodomains) [5]: strong binding to BD2 of BRDT and other non‐BET bromodomain‐containing proteins
Cc1cc(-c2nc3ccc(S(=O)(=O)Nc4ccccn4)cc3[nH]2)ccc1O [9 j, 2‐(4‐hydroxy‐3‐methylphenyl)‐N‐(pyridin‐2‐yl)‐1H‐benzo[d]imidazole‐6‐sulfonamide]	marked loss of activity	–
Cc1cc(O)cc(C)c1-c1nc2ccc(S(=O)(=O)Nc3ccccn3)cc2[nH]1 [9 k, 2‐(4‐hydroxy‐2,6‐dimethylphenyl)‐N‐(pyridin‐2‐yl)‐1H‐benzo[d]imidazole‐6‐sulfonamide]	marked loss of activity	–
O=S(=O)(Nc1ccccn1)c1ccc2nc(-c3ccc(O)cc3)[nH]c2c1 [9 l, 2‐(4‐hydroxyphenyl)‐N‐(pyridin‐2‐yl)‐1H‐benzo[d]imidazole‐6‐sulfonamide]	still active but significantly less selective	–
O=S(=O)(Nc1ccccn1)c1ccc2nc(-c3cccc(O)c3)[nH]c2c1 [9 m, 2‐(3‐hydroxyphenyl)‐N‐(pyridin‐2‐yl)‐1H‐benzo[d]imidazole‐6‐sulfonamide]	almost completely inactive	–
O=S(=O)(Nc1ccccn1)c1ccc2nc(-c3ccc(Cl)cc3)[nH]c2c1 [9 n, 2‐(4‐chlorophenyl)‐N‐(pyridin‐2‐yl)‐1H‐benzo[d]imidazole‐6‐sulfonamide]	almost completely inactive	–
O=S(=O)(Nc1ccccn1)c1ccc2nc(-c3ccc(O)c(O)c3)[nH]c2c1 [9 o, 2‐(3,4‐dihydroxyphenyl)‐N‐(pyridin‐2‐yl)‐1H‐benzo[d]imidazole‐6‐sulfonamide]	not tolerated	–
O=S(=O)(Nc1ccccn1)c1ccc2nc(-c3ccc(O)cc3O)[nH]c2c1 [9 p, 2‐(2,4‐dihydroxyphenyl)‐N‐(pyridin‐2‐yl)‐1H‐benzo[d]imidazole‐6‐sulfonamide]	active but non‐selective	–
COCC(COC)n1c(-c2cc(C)c(=O)n(C)c2)nc2cc(N3CCOCC3)ccc21 [Compound 8, I‐BET469]	–	Selectivity for BD1 over BD2 of BRD2, BRD3 and BRD4 [6]: 20 fold; pIC50 on BD1 of BRD4 [6]: 7.9
COc1ccccc1S(=O)(=O)Nc1ccc2c3c(cc(-n4cnc(C)c4)nc13)C(=O)N2C [LT052]	–	IC50 ([7]; read-out: IC50 towards BD1): 87.7 nM; Selectivity for BD1 over BD2 ([7]; tested against BRD3 and BRD4): over 100 fold
CC(C)NCC(O)COc1cccc2ccccc12 (stereo not drawn) [propranolol]	–	Papp at 24 h, 0.2 mM [3]: 1.91 ×10⁻⁶ cm/s
